According to patent US9884823B2, “Oxime ether acetate compound, preparation method therefor and weeding application thereof” (ZHEJIANG UNIVERSITY OF TECHNOLOGY, priority 2014, dated 2018):

Each compound was assayed on Barnyardgrass (assay: Potted plants live body test). Settings: postemergence spraying; 150 g a.i./ha; Table 10.
Format: in vivo, barnyard grass
With COc1cc(OC)nc(Oc2ccccc2CNc2ccc(C(=O)OC(C)C)cc2)n1 [Pyribambenz isopropyl, reference compound] the “efficiency, Barnyardgrass” value was 50%.

What follows are compounds tested on Cucumber (assay: Culture dish method (general screening)). Settings: 100 mg/L; 7 days; root.
Format: in vivo
Source text: (§3) Culture dish method (general screening): The test targets were radish, cucumber, rape, wheat, sorghum and barnyard grass; the seeds of wheat, sorghum and radish were germinated in advance, and the uniform emerge-germinating seeds were used in the test.
In the case of COc1cc(OC)nc(Oc2ccccc2CNc2ccc(C(=O)OC(C)C)cc2)n1 [Pyribambenz isopropyl, reference compound], the “inhibition rate, Cucumber Root” value is reported as 95%.

Same assay, conditions: 100 mg/L; 7 days; stem
COc1cc(OC)nc(Oc2ccccc2CNc2ccc(C(=O)OC(C)C)cc2)n1 [Pyribambenz isopropyl, reference compound] was tested, and the “inhibition rate, Cucumber Stem” value was 90%.

The compounds below were run on Eclipta prostrata (assay: Potted plants live body test). Settings: postemergence spraying; 150 g a.i./ha; Table 10.
Format: in vivo
Source text: (§1) The raw drug which was selected from the compounds in table 1 was weighed using an analytical balance (0.0001 g), and dissolved in DMF containing 1 wt % Tween-80 emulsifier to prepare a mother liquor of raw drug with a mass concentration of 1.0˜5.0%, and then diluted with distilled water, to prepare preparations at desired concentrations according to the ratio of ingredients in Examples 8, 9 and 10.
(§2) The test targets were mustard, small quinoa, Abutilon, amaranthus retroflexus, Eclipta prostrata, crabgrass, dog point. A pot with a diameter of 7.5 cm was used, filled with composite soil (garden soil:nursery matrix, 1:2, v/v) to ¾ of the pot, then the above […] kinds of weeds targets were directly seeded (germination rate ≧85%), covered with soil at a thickness of 0.2 cm. When the weeds grew to 3-leaf stage, pre-emergence soil treatment for weeds planting, and then spraying was performed.
COc1cc(OC)nc(Oc2ccccc2CNc2ccc(C(=O)OC(C)C)cc2)n1 [Pyribambenz isopropyl, reference compound] was tested, and the “efficiency, Eclipta prostrate” value was 0%.

The compounds below were run on Abutilon (assay: Potted plants live body test). Settings: postemergence spraying; 150 g a.i./ha; Table 10.
Format: in vivo
Source text: as §1, §2
In the case of COc1cc(OC)nc(Oc2ccccc2CNc2ccc(C(=O)OC(C)C)cc2)n1 [Pyribambenz isopropyl, reference compound], the “efficiency, Abutilon” value is reported as 0%.

The compounds below were run on Crabgrass (assay: Potted plants live body test). Settings: postemergence spraying; 150 g a.i./ha; Table 10.
Format: in vivo
Source text: as §1, §2
COc1cc(OC)nc(Oc2ccccc2CNc2ccc(C(=O)OC(C)C)cc2)n1 [Pyribambenz isopropyl, reference compound] was tested, and the “efficiency, Crabgrass” value was 50%.

Each compound was assayed on Dog point (assay: Potted plants live body test). Settings: postemergence spraying; 150 g a.i./ha; Table 10.
Format: in vivo
Source text: as §1, §2
COc1cc(OC)nc(Oc2ccccc2CNc2ccc(C(=O)OC(C)C)cc2)n1 [Pyribambenz isopropyl, reference compound] was tested, and the “efficiency, Dog point” value was 80%.

Each compound was assayed on amaranthus retroflexus (assay: Potted plants live body test). Settings: postemergence spraying; 150 g a.i./ha; Table 10.
Format: in vivo
Source text: as §1, §2
With COc1cc(OC)nc(Oc2ccccc2CNc2ccc(C(=O)OC(C)C)cc2)n1 [Pyribambenz isopropyl, reference compound] the “efficiency, amaranthus retroflexus” value was 70%.

The compounds below were run on Radish (assay: Culture dish method (general screening)). Settings: 100 mg/L; 7 days; root.
Format: in vivo
Source text: as §3
With COc1cc(OC)nc(Oc2ccccc2CNc2ccc(C(=O)OC(C)C)cc2)n1 [Pyribambenz isopropyl, reference compound] the “inhibition rate, Radish Root” value was 100%.

Same assay, conditions: 100 mg/L; 7 days; stem
COc1cc(OC)nc(Oc2ccccc2CNc2ccc(C(=O)OC(C)C)cc2)n1 [Pyribambenz isopropyl, reference compound] was tested, and the “inhibition rate, Radish Stem” value was 90%.

The compounds below were run on Barnyardgrass (assay: Culture dish method (general screening)). Settings: 100 mg/L; 7 days; root.
Format: in vivo, barnyard grass
Source text: as §3
With COc1cc(OC)nc(Oc2ccccc2CNc2ccc(C(=O)OC(C)C)cc2)n1 [Pyribambenz isopropyl, reference compound] the “inhibition rate, Barnyardgrass Root” value was 100%.

Same assay, conditions: 100 mg/L; 7 days; stem
In the case of COc1cc(OC)nc(Oc2ccccc2CNc2ccc(C(=O)OC(C)C)cc2)n1 [Pyribambenz isopropyl, reference compound], the “inhibition rate, Barnyardgrass Stem” value is reported as 95%.

What follows are compounds tested on Wheat (assay: Culture dish method (general screening)). Settings: 100 mg/L; 7 days; root.
Format: in vivo
Source text: as §3
With COc1cc(OC)nc(Oc2ccccc2CNc2ccc(C(=O)OC(C)C)cc2)n1 [Pyribambenz isopropyl, reference compound] the “inhibition rate, Wheat Root” value was 95%.

Same assay, conditions: 100 mg/L; 7 days; stem
For COc1cc(OC)nc(Oc2ccccc2CNc2ccc(C(=O)OC(C)C)cc2)n1 [Pyribambenz isopropyl, reference compound], the “inhibition rate, Wheat Stem” value was 95%.

What follows are compounds tested on Rape (assay: Culture dish method (general screening)). Settings: 100 mg/L; 7 days; root.
Format: in vivo
Source text: as §3
For COc1cc(OC)nc(Oc2ccccc2CNc2ccc(C(=O)OC(C)C)cc2)n1 [Pyribambenz isopropyl, reference compound], the “inhibition rate, Rape Root” value was 100%.

Same assay, conditions: 100 mg/L; 7 days; stem
With COc1cc(OC)nc(Oc2ccccc2CNc2ccc(C(=O)OC(C)C)cc2)n1 [Pyribambenz isopropyl, reference compound] the “inhibition rate, Rape Stem” value was 100%.

The compounds below were run on Chinese sorghum (assay: Culture dish method (general screening)). Settings: 100 mg/L; 7 days; root.
Format: in vivo
Source text: as §3
For COc1cc(OC)nc(Oc2ccccc2CNc2ccc(C(=O)OC(C)C)cc2)n1 [Pyribambenz isopropyl, reference compound], the “inhibition rate, Chinese sorghum Root” value was 100%.

Same assay, conditions: 100 mg/L; 7 days; stem
In the case of COc1cc(OC)nc(Oc2ccccc2CNc2ccc(C(=O)OC(C)C)cc2)n1 [Pyribambenz isopropyl, reference compound], the “inhibition rate, Chinese sorghum Stem” value is reported as 90%.
